Reference: ChEMBL document CHEMBL1135802, “Pyrrolo[1,3]benzothiazepine-based atypical antipsychotic agents. Synthesis, structure-activity relationship, molecular modeling, and biological studies” (J Med Chem, 2002)
pKi: −log10 of the molar value.

What was measured:
[1] = target: T1, D(3) dopamine receptor (Rattus norvegicus, UniProt P19020); set-up: species or system Tissue
[2] = target: T2, D(1A) dopamine receptor (Rattus norvegicus, UniProt P18901)
[3] = organism: Mus musculus; test: animal or person; format: functional; details: sc, route subcutaneous
[4] = organism: Rattus norvegicus; details: in vivo
[5] = organism: Rattus norvegicus; details: in vivo; remark: listed apart in the source
[6] = organism: Rattus norvegicus; details: in vivo; remark: listed apart in the source
[7] = organism: Rattus norvegicus; details: in vivo; remark: listed apart in the source
[8] = organism: Mus musculus; test: animal or person; format: functional; details: po
[9] = organism: Rattus norvegicus; details: in vivo; remark: listed apart in the source
[10] = organism: Rattus norvegicus; details: in vivo; remark: listed apart in the source
[11] = organism: Rattus norvegicus; details: in vivo; remark: listed apart in the source
[12] = target: T3, Adrenergic receptor alpha-1 (Rattus norvegicus, UniProt P15823+P23944+P43140); format: tissue-based, Frontal cortex
T3 sequence (P15823 whole entry): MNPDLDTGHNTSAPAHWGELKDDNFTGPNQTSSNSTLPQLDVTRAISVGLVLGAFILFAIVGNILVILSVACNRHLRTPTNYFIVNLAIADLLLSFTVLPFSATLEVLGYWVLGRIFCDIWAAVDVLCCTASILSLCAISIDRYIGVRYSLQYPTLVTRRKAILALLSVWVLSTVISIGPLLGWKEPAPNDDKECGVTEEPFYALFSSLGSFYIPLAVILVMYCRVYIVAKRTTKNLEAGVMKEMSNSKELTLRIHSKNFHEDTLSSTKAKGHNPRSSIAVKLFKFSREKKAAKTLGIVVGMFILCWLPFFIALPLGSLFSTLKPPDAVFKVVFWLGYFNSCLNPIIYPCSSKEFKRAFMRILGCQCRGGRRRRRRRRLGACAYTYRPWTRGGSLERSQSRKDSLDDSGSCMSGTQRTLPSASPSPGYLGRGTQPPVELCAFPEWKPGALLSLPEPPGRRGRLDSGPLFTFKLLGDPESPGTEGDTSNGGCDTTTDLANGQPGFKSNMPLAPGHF
T3 sequence (P23944 whole entry): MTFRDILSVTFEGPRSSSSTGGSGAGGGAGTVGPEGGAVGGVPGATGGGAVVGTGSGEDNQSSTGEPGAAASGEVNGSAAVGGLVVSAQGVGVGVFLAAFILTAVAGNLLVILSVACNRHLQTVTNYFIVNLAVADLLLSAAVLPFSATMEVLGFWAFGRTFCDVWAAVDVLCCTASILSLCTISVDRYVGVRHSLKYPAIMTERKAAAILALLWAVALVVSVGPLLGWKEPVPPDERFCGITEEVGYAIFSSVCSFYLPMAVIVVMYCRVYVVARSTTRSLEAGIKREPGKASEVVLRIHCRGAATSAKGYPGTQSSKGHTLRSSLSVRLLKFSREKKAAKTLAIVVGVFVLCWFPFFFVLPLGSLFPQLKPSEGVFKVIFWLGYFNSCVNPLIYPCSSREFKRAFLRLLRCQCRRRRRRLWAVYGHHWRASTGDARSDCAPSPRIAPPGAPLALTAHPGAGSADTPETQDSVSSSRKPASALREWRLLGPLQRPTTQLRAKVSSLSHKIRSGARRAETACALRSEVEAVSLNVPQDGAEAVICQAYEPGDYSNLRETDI
T3 sequence (P43140 whole entry): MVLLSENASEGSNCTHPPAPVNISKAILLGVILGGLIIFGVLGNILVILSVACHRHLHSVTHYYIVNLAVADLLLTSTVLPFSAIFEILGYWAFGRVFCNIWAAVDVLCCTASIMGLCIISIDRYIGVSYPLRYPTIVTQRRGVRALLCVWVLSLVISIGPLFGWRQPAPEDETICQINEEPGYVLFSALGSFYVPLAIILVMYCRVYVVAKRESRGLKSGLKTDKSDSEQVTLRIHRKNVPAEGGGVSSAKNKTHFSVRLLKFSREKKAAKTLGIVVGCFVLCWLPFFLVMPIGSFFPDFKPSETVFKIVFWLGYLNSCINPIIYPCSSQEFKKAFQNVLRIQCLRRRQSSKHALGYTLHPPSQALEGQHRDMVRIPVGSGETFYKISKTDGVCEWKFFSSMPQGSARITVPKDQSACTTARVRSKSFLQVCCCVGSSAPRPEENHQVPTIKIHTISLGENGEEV

[13] = organism: Rattus norvegicus; details: in vivo; remark: listed apart in the source
[14] = target: T4, Adrenergic receptor alpha-2 (Rattus norvegicus, UniProt P22086+P19328+P22909); format: tissue-based, Frontal cortex
T4 sequence (P22086 whole entry): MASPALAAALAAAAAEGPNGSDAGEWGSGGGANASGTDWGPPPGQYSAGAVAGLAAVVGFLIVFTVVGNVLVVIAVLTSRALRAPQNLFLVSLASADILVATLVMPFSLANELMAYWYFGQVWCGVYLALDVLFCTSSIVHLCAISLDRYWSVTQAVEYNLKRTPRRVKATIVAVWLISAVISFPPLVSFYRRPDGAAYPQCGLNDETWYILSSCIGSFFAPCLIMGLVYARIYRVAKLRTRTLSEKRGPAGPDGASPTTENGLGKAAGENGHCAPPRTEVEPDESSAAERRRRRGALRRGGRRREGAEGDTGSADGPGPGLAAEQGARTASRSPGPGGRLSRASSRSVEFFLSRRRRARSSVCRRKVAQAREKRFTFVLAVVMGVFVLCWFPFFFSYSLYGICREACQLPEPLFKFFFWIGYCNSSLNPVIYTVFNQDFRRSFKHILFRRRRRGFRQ
T4 sequence (P19328 whole entry): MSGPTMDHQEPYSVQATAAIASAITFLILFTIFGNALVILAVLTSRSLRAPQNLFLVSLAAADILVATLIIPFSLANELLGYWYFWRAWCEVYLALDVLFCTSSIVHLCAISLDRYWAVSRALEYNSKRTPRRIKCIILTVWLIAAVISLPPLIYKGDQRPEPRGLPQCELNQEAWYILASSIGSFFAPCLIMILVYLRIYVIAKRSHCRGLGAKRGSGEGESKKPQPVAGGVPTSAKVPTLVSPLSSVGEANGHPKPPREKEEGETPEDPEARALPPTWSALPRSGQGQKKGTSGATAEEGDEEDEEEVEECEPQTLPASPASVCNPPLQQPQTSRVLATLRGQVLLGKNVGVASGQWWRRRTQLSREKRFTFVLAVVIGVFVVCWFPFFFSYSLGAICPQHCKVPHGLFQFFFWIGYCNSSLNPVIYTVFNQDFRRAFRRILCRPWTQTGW
T4 sequence (P22909 whole entry): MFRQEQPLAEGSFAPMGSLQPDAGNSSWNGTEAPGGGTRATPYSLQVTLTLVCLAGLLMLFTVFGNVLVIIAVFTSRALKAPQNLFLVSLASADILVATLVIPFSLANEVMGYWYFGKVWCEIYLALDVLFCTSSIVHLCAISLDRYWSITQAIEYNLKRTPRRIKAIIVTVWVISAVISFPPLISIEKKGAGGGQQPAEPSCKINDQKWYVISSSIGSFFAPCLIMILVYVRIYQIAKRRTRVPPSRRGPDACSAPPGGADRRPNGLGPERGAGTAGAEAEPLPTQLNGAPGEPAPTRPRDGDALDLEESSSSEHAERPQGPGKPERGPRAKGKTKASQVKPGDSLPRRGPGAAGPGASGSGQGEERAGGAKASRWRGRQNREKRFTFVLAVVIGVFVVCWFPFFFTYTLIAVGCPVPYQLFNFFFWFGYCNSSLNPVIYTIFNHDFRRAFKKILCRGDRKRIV

[15] = organism: Mus musculus; test: animal or person; format: functional; details: sc, dose 0.19 mg/kg, route subcutaneous
[16] = organism: Rattus norvegicus; details: in vivo; remark: listed apart in the source
[17] = organism: Mus musculus; test: animal or person; format: functional; details: dose 7.9 mg/kg, route oral
[18] = organism: Mus musculus; test: animal or person; format: functional; details: route oral
[19] = organism: Mus musculus; test: animal or person; format: functional; details: sc, route subcutaneous; remark: listed apart in the source
[20] = target: T5, Muscarinic acetylcholine receptor M1 (Rattus norvegicus, UniProt P08482); test: biochemical; format: tissue-based, Frontal cortex
T5 sequence (P08482 whole entry): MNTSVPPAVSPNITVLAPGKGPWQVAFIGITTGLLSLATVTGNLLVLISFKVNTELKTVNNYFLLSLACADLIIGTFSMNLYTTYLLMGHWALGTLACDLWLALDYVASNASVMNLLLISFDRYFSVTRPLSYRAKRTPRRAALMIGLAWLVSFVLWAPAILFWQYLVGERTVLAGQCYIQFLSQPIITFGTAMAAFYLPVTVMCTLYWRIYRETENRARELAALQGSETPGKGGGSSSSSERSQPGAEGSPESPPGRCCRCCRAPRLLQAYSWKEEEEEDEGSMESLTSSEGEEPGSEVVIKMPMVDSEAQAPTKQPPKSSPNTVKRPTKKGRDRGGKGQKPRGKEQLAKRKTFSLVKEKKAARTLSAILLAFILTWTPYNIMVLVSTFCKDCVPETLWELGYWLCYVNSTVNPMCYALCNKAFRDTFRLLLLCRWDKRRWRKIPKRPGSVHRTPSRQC

[21] = target: T6, 5-hydroxytryptamine receptor 2A (Rattus norvegicus, UniProt P14842); test: biochemical
T6 sequence (P14842 whole entry): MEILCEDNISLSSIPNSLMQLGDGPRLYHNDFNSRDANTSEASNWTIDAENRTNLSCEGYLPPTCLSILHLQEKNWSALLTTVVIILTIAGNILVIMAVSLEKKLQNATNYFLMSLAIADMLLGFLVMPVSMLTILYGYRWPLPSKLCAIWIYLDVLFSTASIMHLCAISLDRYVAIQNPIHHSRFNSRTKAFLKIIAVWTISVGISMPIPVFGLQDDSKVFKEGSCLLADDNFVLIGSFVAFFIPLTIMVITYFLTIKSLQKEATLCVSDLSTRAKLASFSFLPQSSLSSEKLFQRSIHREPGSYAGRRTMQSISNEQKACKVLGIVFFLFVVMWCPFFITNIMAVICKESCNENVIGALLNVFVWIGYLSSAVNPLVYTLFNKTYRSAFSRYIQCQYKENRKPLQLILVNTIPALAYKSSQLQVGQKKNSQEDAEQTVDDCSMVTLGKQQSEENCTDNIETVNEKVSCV

[22] = target: T6, 5-hydroxytryptamine receptor 2A; test: biochemical; format: tissue-based, Cerebral cortex
[23] = target: T1, D(3) dopamine receptor; set-up: species or system Tissue; remark: listed apart in the source
[24] = target: T1, D(3) dopamine receptor; set-up: species or system Tissue; remark: listed apart in the source
[25] = target: Histamine H1 receptor (Rattus norvegicus, UniProt P31390); test: biochemical; format: tissue-based, Frontal cortex
Histamine H1 receptor, sequence (P31390 whole entry): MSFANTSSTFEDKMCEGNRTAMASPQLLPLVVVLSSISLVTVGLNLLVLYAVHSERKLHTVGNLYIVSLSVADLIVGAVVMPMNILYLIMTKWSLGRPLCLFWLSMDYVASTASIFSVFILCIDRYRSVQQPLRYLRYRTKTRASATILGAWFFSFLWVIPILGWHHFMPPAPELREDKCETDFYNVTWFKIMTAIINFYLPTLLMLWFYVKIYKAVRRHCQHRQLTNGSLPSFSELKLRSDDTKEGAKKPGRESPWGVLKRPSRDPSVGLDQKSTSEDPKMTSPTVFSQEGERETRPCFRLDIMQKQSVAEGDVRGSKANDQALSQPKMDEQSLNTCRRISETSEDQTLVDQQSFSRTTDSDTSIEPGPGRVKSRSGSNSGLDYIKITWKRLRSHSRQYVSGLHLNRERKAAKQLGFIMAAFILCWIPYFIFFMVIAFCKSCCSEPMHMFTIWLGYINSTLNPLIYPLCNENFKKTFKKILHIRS

[26] = organism: Mus musculus; test: animal or person; format: functional; details: sc, dose 1.5 mg/kg, route subcutaneous
[27] = organism: Mus musculus; test: animal or person; format: functional; details: sc, dose 0.83 mg/kg, route subcutaneous
[28] = organism: Mus musculus; test: animal or person; format: functional; details: sc
[29] = target: T2, D(1A) dopamine receptor; remark: listed apart in the source

T2 sequence (P18901 whole entry): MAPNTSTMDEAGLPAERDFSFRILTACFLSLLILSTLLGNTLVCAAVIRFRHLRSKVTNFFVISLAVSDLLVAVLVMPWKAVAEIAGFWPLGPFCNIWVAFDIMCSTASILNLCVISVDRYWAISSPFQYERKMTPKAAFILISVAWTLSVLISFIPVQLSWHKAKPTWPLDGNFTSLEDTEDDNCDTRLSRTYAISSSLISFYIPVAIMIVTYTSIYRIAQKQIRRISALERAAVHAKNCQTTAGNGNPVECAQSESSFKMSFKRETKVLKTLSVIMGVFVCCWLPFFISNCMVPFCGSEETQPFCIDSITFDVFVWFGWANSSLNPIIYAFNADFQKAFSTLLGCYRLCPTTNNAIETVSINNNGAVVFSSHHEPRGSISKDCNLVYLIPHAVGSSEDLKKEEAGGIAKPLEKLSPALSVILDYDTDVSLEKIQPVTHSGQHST
T1 sequence (P19020 whole entry): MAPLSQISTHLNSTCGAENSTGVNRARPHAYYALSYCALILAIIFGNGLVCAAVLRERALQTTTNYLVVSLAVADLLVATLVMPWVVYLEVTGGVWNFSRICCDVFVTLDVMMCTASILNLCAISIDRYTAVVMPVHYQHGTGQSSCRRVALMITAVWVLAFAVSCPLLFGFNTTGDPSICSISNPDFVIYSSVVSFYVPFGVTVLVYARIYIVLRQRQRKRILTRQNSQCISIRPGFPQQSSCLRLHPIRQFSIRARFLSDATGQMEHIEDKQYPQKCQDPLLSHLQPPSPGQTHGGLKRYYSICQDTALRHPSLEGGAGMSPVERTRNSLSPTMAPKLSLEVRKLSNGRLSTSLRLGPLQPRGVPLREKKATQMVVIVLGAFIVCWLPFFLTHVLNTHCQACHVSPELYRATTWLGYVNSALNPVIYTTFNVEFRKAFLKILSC

pKi [1]	pKi [2]	Ki [12] [nM]	pKi [20]	pKi [21]	SMILES	also measured
9.40	8.72	–	–	–	CN1CCN([C@H]2Cc3ccccc3Sc3ccc(Cl)cc32)CC1	–
8.00	7.70	–	–	7.64	OCCN1CCN(C2Cn3cccc3Sc3ccc(Br)cc32)CC1 (racemic)	–
7.24	7.28	–	–	7.80	CN1CCCN(C2Cn3cccc3Sc3ccc(Cl)cc32)CC1 (racemic)	pKi [22]: 7.27
8.35	7.74	–	–	8.24	CCN1CCN(C2Cn3cccc3Sc3ccc(Cl)cc32)CC1 (racemic)	–
–	7.14	2.9	5.20	8.15	OCCN1CCN(C2Cn3cccc3Sc3ccc(F)cc32)CC1 (racemic)	pKi [22]: 7.13; pKi [23]: 7.88; pKi [24]: 7.89; pKi [25]: 8.15
8.44	7.57	–	–	8.06	OCCN1CCN(C2Cn3cccc3Sc3ccc(Cl)cc32)CC1 (racemic)	–
–	7.85	–	–	7.92	CN1CCN(C2Cn3cccc3Sc3ccc(Br)cc32)CC1 (racemic)	–
–	7.51	0.4	5.63	8.37	CCN1CCN(C2Cn3cccc3Sc3ccc(F)cc32)CC1 (racemic)	pKi [23]: 7.74; pKi [24]: 7.74; pKi [25]: 8.37
8.13	7.85	–	–	7.64	CCN1CCN(C2Cn3cccc3Sc3ccc(Br)cc32)CC1 (racemic)	–
–	–	18.8	5.64	–	CN1CCN([C@@H]2Cn3cccc3Sc3ccccc32)CC1 (stereo in doubt; (+)-6a)	ED50 at […] [26]: 5.2 µmol/kg; pKi [25]: 8.02; ED50 at […] [27]: 2.8 µmol/kg; ED50 [28]: 269 µmol/kg
–	–	12	–	–	CN1CCN([C@H]2Cn3cccc3Sc3ccc(F)cc32)CC1 (stereo in doubt; (+)-6b)	–
–	–	4.5	< 5.00	–	CN1CCN([C@H]2Cn3cccc3Sc3ccc(F)cc32)CC1 (stereo in doubt; (-)-6b)	–
–	–	–	–	–	CSc1ccc2c(c1)C(N1CCN(C)CC1)Cc1ccccc1S2 (stereo not given) [METITEPINE]	pKi [29]: 8.70

SMILES	pKi [1]	pKi [2]	Ki [12] [nM]	pKi [20]	pKi [21]	also measured
CN1CCN([C@H]2Cn3cccc3Sc3ccc(Cl)cc32)CC1	8.73	–	–	–	–	–
CN1CCN([C@@H]2Cn3cccc3Sc3ccc(Cl)cc32)CC1	6.96	–	0.82	6.54	–	ED50 [3]: 0.24 µmol/kg; AUC [4]: 133; AUC [5]: 156.3; AUC [6]: 179; AUC [7]: 193.8; ED50 at […] [8]: 115 µmol/kg; AUC [9]: 133.6; AUC [10]: 145.4; AUC [11]: 20.35; AUC [13]: 163.4; Ki [14]: 209 nM; ED50 at […] [15]: 0.48 µmol/kg; AUC [16]: 174.4; ED50 at […] [17]: 19.5 µmol/kg; ED50 [18]: 14.3 µmol/kg; ED50 [19]: 45 µmol/kg
